Assay results from US20260078130A1, “NAMPT MODULATORS, PREPARATIONS, AND USES THEREOF” (SIRONAX LTD., priority 2022, published 2026).
pEC50: −log10 of the molar value. Read-outs that look alike come from different tables or passages of the source.

Columns and labels:
[1] = target: T1, human enzyme NAMPT (full length) (Homo sapiens, UniProt P43490); experiment: NMN fluorescence biochemical assay (stimulation of NMN synthesis by NAMPT); conditions: for pEC50: concentration giving half-maximal activation, read-out: Enzymatic EC50; for Enzymatic Emax: fold change of maximal activation compared to DMSO
T1 construct: human enzyme NAMPT (full length)
T1 sequence (P43490 whole entry): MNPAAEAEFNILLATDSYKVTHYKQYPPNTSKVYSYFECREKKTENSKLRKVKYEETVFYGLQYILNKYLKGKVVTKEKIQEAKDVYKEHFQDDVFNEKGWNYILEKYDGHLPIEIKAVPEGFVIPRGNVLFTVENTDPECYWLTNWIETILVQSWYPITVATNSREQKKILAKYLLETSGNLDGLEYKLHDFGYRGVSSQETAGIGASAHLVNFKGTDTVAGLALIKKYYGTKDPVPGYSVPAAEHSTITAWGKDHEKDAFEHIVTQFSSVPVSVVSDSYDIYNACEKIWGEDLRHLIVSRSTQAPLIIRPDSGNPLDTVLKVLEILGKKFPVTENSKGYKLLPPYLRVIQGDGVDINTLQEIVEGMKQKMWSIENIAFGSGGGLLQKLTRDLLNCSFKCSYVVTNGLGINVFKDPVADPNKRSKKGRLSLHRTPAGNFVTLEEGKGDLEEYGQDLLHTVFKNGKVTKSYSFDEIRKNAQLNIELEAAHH
Outline: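 Full-length human NAMPT (100 nM) was preincubated 15 min at 37 °C with compound in 50 mM Tris-HCl pH 7.5, 10 mM MgCl2, 2 mM DTT, then reacted 1 h at 37 °C with 50 μM NAM, 100 μM PRPP, 4 mM ATP (stated solution concentrations). NMN was derivatised with acetophenone/KOH then formic acid and read at Ex/Em 382/445 nm; EC50 and Emax (fold over DMSO) reported.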

[2] = test system: endogenous NAMPT in U2OS cells; experiment: Cellular NAD+ modulation assay (NAD/NADH-Glo, U2OS cells); assay type: cell-based; conditions: Homo sapiens; for maximal fold induction: read-out: Cellular Emax
Outline: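 Endogenous NAMPT stimulation in U2OS cells treated with compound dilution series for 24 h at 37 °C. Cells lysed with DTAB base, acid-treated 15 min at 60 °C, neutralized, NAD+ read by NAD/NADH-Glo luminescence after 40 min at room temperature. EC50 and Emax (fold over DMSO) derived.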

[3] = NMN fluorescence assay, purified human NAMPT 100 nM
[4] = 24 hours incubation, cellular NAD+
[5] = NMN synthesis by purified human NAMPT (100 nM)
[6] = 24 hours incubation with compound

| pEC50 [1, 3] | Enzymatic Emax [1] | pEC50 [2, 4] | pEC50 [1, 5] | pEC50 [2, 6] | SMILES | maximal fold induction [2, 4] | maximal fold induction [2, 6] |
| --- | --- | --- | --- | --- | --- | --- | --- |
| > 6.30 | A (A>3) | 5.30 to 6.30 | – | – | O=C1c2ccccc2C(Cc2ncccc2Br)N1Cc1ccc2[nH]nnc2c1F (centres unmarked) [Compound 330, 3-((3-bromopyridin-2-yl)methyl)-2-((4-fluoro-1H-benzo[d][1,2,3]triazol-5-yl)methyl)isoindolin-1-one] | > 1.5 | – |
| ≤ 5.30 | B (3≥B>2) | 5.30 to 6.30 | – | – | Cn1ncc(Cl)c1CC1c2ccccc2C(=O)N1Cc1n[nH]c(=O)o1 (centres unmarked) [Compound 632, 5-((1-((4-chloro-1-methyl-1H-pyrazol-5-yl)methyl)-3-oxoisoindolin-2-yl)methyl)-1,3,4-oxadiazol-2(3H)-one] | > 1.5 | – |
| 5.30 to 6.30 | A (A>3) | > 6.30 | – | – | N#Cc1cncc(C#N)c1CC1c2ccccc2C(=O)N1CC1CC2(CNC(=O)O2)C1 (centres unmarked) [Compound 459, 4-((3-oxo-2-((6-oxo-5-oxa-7-azaspiro[3.4]octan-2-yl)methyl)isoindolin-1-yl)methyl)pyridine-3,5-dicarbonitrile] | > 1.5 | – |
| – | B (3≥B>2) | – | ≤ 5.30 | 5.30 to 6.30 | CC1c2cc(CN(C)C)ccc2C(=O)N1Cc1ccc2[nH]c(=O)oc2c1 (single isomer, unassigned) [Compound 273] | – | 1.2 to 1.5 |
| ≤ 5.30 | A (A>3) | 5.30 to 6.30 | – | – | COc1ccc(CN2C(=O)c3ccc(C4CC4)cc3C2Cc2c(Cl)cnn2C)cn1 (centres unmarked) [Compound 623, 3-((4-chloro-1-methyl-1H-pyrazol-5-yl)methyl)-5-cyclopropyl-2-((6-methoxypyridin-3-yl)methyl)isoindolin-1-one] | > 1.5 | – |
| 5.30 to 6.30 | B (3≥B>2) | 5.30 to 6.30 | – | – | Cn1ncc(Cl)c1CC1c2cc(C#N)ccc2C(=O)N1CC1CC2(CNC(=O)O2)C1 (centres unmarked) [Compound 464, 3-((4-chloro-1-methyl-1H-pyrazol-5-yl)methyl)-1-oxo-2-((6-oxo-5-oxa-7-azaspiro[3.4]octan-2-yl)methyl)isoindoline-5-carbonitrile] | > 1.5 | – |
| > 6.30 | B (3≥B>2) | > 6.30 | – | – | Cn1nc(C2CC2)c(Cl)c1CC1c2ccccc2C(=O)N1Cc1ccc2[nH]nnc2c1 (centres unmarked) [Compound 399, 2-((1H-benzo[d][1,2,3]triazol-5-yl)methyl)-3-((4-chloro-3-cyclopropyl-1-methyl-1H-pyrazol-5-yl)methyl)isoindolin-1-one] | > 1.5 | – |
| > 6.30 | B (3≥B>2) | > 6.30 | – | – | Cn1ncc(Cl)c1CC1c2ccccc2C(=O)N1C/C=C/c1nn[nH]c1F (centres unmarked) [Compound 516, (E)-3-((4-chloro-1-methyl-1H-pyrazol-5-yl)methyl)-2-(3-(5-fluoro-1H-1,2,3-triazol-4-yl)allyl)isoindolin-1-one] | > 1.5 | – |
| – | A (A>3) | – | > 6.30 | > 6.30 | N#Cc1ccc(CC2c3ccccc3C(=O)N2Cc2ccc3[nH]c(=O)oc3c2)c(F)c1 (centres unmarked) [Compound 199, 3-fluoro-4-((3-oxo-2-((2-oxo-2,3-dihydrobenzo[d]oxazol-6-yl)methyl)isoindolin-1-yl)methyl)benzonitrile] | – | > 1.5 |
| 5.30 to 6.30 | B (3≥B>2) | 5.30 to 6.30 | – | – | Cn1ncc(Cl)c1CC1c2ccccc2C(=O)N1Cc1ccc2c(c1)ncn2C (centres unmarked) [Compound 585, 3-((4-chloro-1-methyl-1H-pyrazol-5-yl)methyl)-2-((1-methyl-1H-benzo[d]imidazol-5-yl)methyl)isoindolin-1-one] | > 1.5 | – |
| – | B (3≥B>2) | – | ≤ 5.30 | 5.30 to 6.30 | COC1CCN(Cc2ccc3c(c2)[C@H](C)N(Cc2ccc4[nH]c(=O)oc4c2)C3=O)C1 (single isomer, unassigned) [Compound 188] | – | > 1.5 |
| ≤ 5.30 | B (3≥B>2) | 5.30 to 6.30 | – | – | COc1ccc(CN2C(=O)c3ncsc3C2Cc2c(Cl)cnn2C)cc1 (centres unmarked) [Compound 615, 6-((4-chloro-1-methyl-1H-pyrazol-5-yl)methyl)-5-(4-methoxybenzyl)-5,6-dihydro-4H-pyrrolo[3,4-d]thiazol-4-one] | 1.2 to 1.5 | – |
| > 6.30 | B (3≥B>2) | > 6.30 | – | – | Cc1cncc(C#N)c1CC1c2ccccc2C(=O)N1Cc1ccc2[nH]nnc2c1 (centres unmarked) [Compound 364, 4-((2-((1H-benzo[d][1,2,3]triazol-5-yl)methyl)-3-oxoisoindolin-1-yl)methyl)-5-methylnicotinonitrile] | > 1.5 | – |
| – | B (3≥B>2) | – | ≤ 5.30 | 4.30 to 5.30 | COc1ccc2c(c1)CN(Cc1ccc3[nH]c(=O)oc3c1)C2=O [Compound 49, 6-((5-methoxy-1-oxoisoindolin-2-yl)methyl)benzo[d]oxazol-2(3H)-one] | – | > 1.5 |
| – | C (2≥C) | – | 5.30 to 6.30 | 5.30 to 6.30 | O=C1c2ccc(N3CCCC3)cc2CN1Cc1ccc(O)cc1 [Compound 298, 2-(4-hydroxybenzyl)-5-(pyrrolidin-1-yl)isoindolin-1-one] | – | 1.2 to 1.5 |
| – | B (3≥B>2) | – | ≤ 5.30 | 5.30 to 6.30 | CC1c2cc(F)ccc2C(=O)N1Cc1ccc2[nH]c(=O)oc2c1 (centres unmarked) [Compound 275, 6-((5-fluoro-3-methyl-1-oxoisoindolin-2-yl)methyl)benzo[d]oxazol-2(3H)-one] | – | > 1.5 |
| 5.30 to 6.30 | B (3≥B>2) | 5.30 to 6.30 | – | – | COc1ccc(CN2C(=O)c3ccc(C4CC4)cc3C2Cc2c(Cl)cnn2C)cc1 (centres unmarked) [Compound 624, 3-((4-chloro-1-methyl-1H-pyrazol-5-yl)methyl)-5-cyclopropyl-2-(4-methoxybenzyl)isoindolin-1-one] | 1.2 to 1.5 | – |
| > 6.30 | B (3≥B>2) | 5.30 to 6.30 | – | – | Cn1nc(CN2CCC2)c(Cl)c1CC1c2ccccc2C(=O)N1CC1CC2(CNC(=O)O2)C1 (centres unmarked) [Compound 508, 2-((1-((3-(azetidin-1-ylmethyl)-4-chloro-1-methyl-1H-pyrazol-5-yl)methyl)-3-oxoisoindolin-2-yl)methyl)-5-oxa-7-azaspiro[3.4]octan-6-one] | > 1.5 | – |
| – | A (A>3) | – | ≤ 5.30 | 4.30 to 5.30 | O=C1c2ccncc2CN1Cc1ccc(O)cc1 [Compound 43, 2-(4-hydroxybenzyl)-2,3-dihydro-1H-pyrrolo[3,4-c]pyridin-1-one] | – | 1.2 to 1.5 |
| – | A (A>3) | – | 5.30 to 6.30 | > 6.30 | N#Cc1ncccc1CC1c2ccccc2C(=O)N1Cc1ccc2[nH]c(=O)oc2c1 (centres unmarked) [Compound 201, 3-((3-oxo-2-((2-oxo-2,3-dihydrobenzo[d]oxazol-6-yl)methyl)isoindolin-1-yl)methyl) picolinonitrile] | – | > 1.5 |
| – | B (3≥B>2) | – | > 6.30 | > 6.30 | N#Cc1cccc(Cl)c1CC1c2ccccc2C(=O)N1Cc1ccc2[nH]c(=O)oc2c1 (centres unmarked) [Compound 190, 3-chloro-2-((3-oxo-2-((2-oxo-2,3-dihydrobenzo[d]oxazol-6-yl)methyl)isoindolin-1-yl)methyl)benzonitrile] | – | > 1.5 |
| 5.30 to 6.30 | C (2≥C) | 5.30 to 6.30 | – | – | O=C1c2ccccc2C(Cc2ncccc2Br)N1CCc1cn[nH]c1 (centres unmarked) [Compound 475, 2-(2-(1H-pyrazol-4-yl)ethyl)-3-((3-bromopyridin-2-yl)methyl)isoindolin-1-one] | 1.2 to 1.5 | – |
| – | B (3≥B>2) | – | 5.30 to 6.30 | 5.30 to 6.30 | Cc1ccc2c(c1)C(=O)N(Cc1ccc(O)cc1)C2=O [Compound 14, 2-(4-hydroxybenzyl)-5-methylisoindoline-1,3-dione] | – | 1.2 to 1.5 |
| – | A (A>3) | – | ≤ 5.30 | 5.30 to 6.30 | C[C@H]1c2ccccc2C(=O)N1Cc1ccc2[nH]c(=O)oc2c1 [Compound 56, (S)-6-((1-methyl-3-oxoisoindolin-2-yl)methyl)benzo[d]oxazol-2(3H)-one] | – | > 1.5 |
| – | B (3≥B>2) | – | > 6.30 | 5.30 to 6.30 | COc1ccccc1CC1c2ccccc2C(=O)N1Cc1ccc2[nH]c(=O)oc2c1 (centres unmarked) [Compound 142, 6-((1-(2-methoxybenzyl)-3-oxoisoindolin-2-yl)methyl)benzo[d]oxazol-2(3H)-one] | – | > 1.5 |

| SMILES | pEC50 [1, 3] | Enzymatic Emax [1] | pEC50 [2, 4] | pEC50 [1, 5] | pEC50 [2, 6] | maximal fold induction [2, 4] | maximal fold induction [2, 6] |
| --- | --- | --- | --- | --- | --- | --- | --- |
| Cn1ncc(Cl)c1CC1c2ccccc2CCN1CC1CC2(CNC(=O)O2)C1 (centres unmarked) [Compound 610, 2-((1-((4-chloro-1-methyl-1H-pyrazol-5-yl)methyl)-3,4-dihydroisoquinolin-2(1H)-yl)methyl)-5-oxa-7-azaspiro[3.4]octan-6-one] | ≤ 5.30 | B (3≥B>2) | 5.30 to 6.30 | – | – | 1.2 to 1.5 | – |
